In the supplement of paper PMC10307832:

Experiments:
Experiment in all cases: relative viability (nuclei count vs DMSO), 5 days (fraction); higher = more cells survive
[1] = compound: CN1CCN(CC1)C2=CC(=C(C=C2)NC3=NC=C4C(=N3)N(C5=CC=CC=C5C(=O)N4C)C)OC [XMD8-85] + CC(C)C[C@H](NC(=O)[C@H](Cc1ccccc1)NC(=O)c1cnccn1)B(O)O [Bortezomib] (partner 0.002 µM)
Procedure, shortened: (§1)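 For relative viability, nuclei counts in treated wells were divided by those in vehicle wells. Lung cancer cell lines had been pin-tool dosed in 1536-well plates the day after seeding and cultured for 5 days, then fixed and stained in one step (final 0.05% Triton X-100, 1% formaldehyde, 1 ug/ml Hoechst) and imaged at 4×. Doses were one drug alone or a fixed anchor-drug dose plus five library-drug doses (not always all listed) in √10 steps, and values are duplicate-plate medians.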

[2] = compound: CN1CCN(CC1)C2=CC(=C(C=C2)NC3=NC=C4C(=N3)N(C5=CC=CC=C5C(=O)N4C)C)OC [XMD8-85] + CS(=O)(=O)N1CCN(Cc2cc3nc(-c4cccc5[nH]ncc45)nc(N4CCOCC4)c3s2)CC1 [Pictilisib] (partner 1 µM)
Procedure, shortened: as §1

[3] = compound: CN1CCN(CC1)C2=CC(=C(C=C2)NC3=NC=C4C(=N3)N(C5=CC=CC=C5C(=O)N4C)C)OC [XMD8-85] + O=C(c1cc(Cc2n[nH]c(=O)c3ccccc23)ccc1F)N1CCN(C(=O)C2CC2)CC1 [Olaparib] (partner 8 µM)
Procedure, shortened: as §1

[4] = compound: O=C(O)C(Cc1ccccc1[N+](=O)[O-])=NNc1nc(-c2ccc(Cl)c(Cl)c2)cs1 (mixture of isomers) [4EGI-1] + Cc1nc(Nc2ncc(C(=O)Nc3c(C)cccc3Cl)s2)cc(N2CCN(CCO)CC2)n1 [Dasatinib] (partner 0.075 µM)
Procedure, shortened: as §1

Cell Line | relative viability ([1]; first compound 0.08 µM) | relative viability ([1]; first compound 0.253 µM) | relative viability ([1]; first compound 0.8 µM) | relative viability ([1]; first compound 2.53 µM) | relative viability ([1]; first compound 8 µM) | relative viability ([2]; first compound 0.08 µM) | relative viability ([2]; first compound 0.253 µM) | relative viability ([2]; first compound 0.8 µM) | relative viability ([2]; first compound 2.53 µM) | relative viability ([2]; first compound 8 µM) | relative viability ([3]; first compound 0.08 µM) | relative viability ([3]; first compound 0.253 µM) | relative viability ([3]; first compound 0.8 µM) | relative viability ([3]; first compound 2.53 µM) | relative viability ([3]; first compound 8 µM) | relative viability ([4]; first compound 0.5 µM) | relative viability ([4]; first compound 5 µM) | relative viability ([4]; first compound 15.81 µM) | relative viability ([4]; first compound 50 µM) | relative viability ([4]; first compound 1.581 µM)
NCI-H838 | 0.714 | 0.696 | 1.02 | 0.892 | 0.489 | 0.423 | 0.455 | 0.503 | 0.429 | 0.317 | 0.796 | 0.749 | 0.898 | 0.778 | 0.279 | 0.322 | 0.245 | 0.267 | 0.19 | –
COR-L 105 | 0.759 | 0.628 | 0.699 | 0.677 | 0.309 | 0.429 | 0.415 | 0.359 | 0.353 | 0.303 | 0.7 | – | 0.692 | 0.58 | 0.455 | 0.357 | 0.326 | 0.235 | 0.248 | 0.335
HCC-366 | 0.91 | 0.815 | 1.08 | 1.1 | 1.09 | 0.137 | 0.239 | 0.146 | 0.168 | 0.304 | 0.231 | 0.358 | 0.385 | – | 0.242 | 0.772 | 0.629 | 0.67 | 0.308 | 0.587
NCI-H650 | 0.778 | 0.855 | 0.854 | 0.858 | 0.27 | – | 0.892 | 0.846 | 0.8 | 0.524 | 0.403 | 0.395 | 0.375 | 0.387 | 0.279 | 0.5 | 0.463 | 0.459 | 0.297 | –
NCI-H1299 | 1.07 | 1.09 | 1.02 | 0.996 | 0.781 | 0.651 | 0.908 | 0.874 | 0.643 | 0.367 | 1.02 | 1 | 0.97 | 0.892 | 0.578 | – | – | – | – | –
LCLC-97TM1 | 0.473 | 0.357 | 0.841 | 0.72 | 0.204 | 0.181 | 0.22 | 0.248 | 0.173 | 0.177 | 0.433 | 0.285 | 0.359 | 0.477 | 0.201 | 0.733 | 0.873 | 0.878 | 0.739 | 0.708
NCI-H1666 | 0.831 | 0.754 | 0.745 | 0.735 | – | 0.522 | 0.375 | 0.391 | 0.312 | 0.44 | 0.697 | 0.716 | 0.742 | 0.773 | – | 0.838 | 0.834 | 0.566 | 0.374 | 0.717
NCI-H1993 | 0.965 | 0.958 | 1.08 | 1.29 | 1.07 | 0.859 | 0.795 | 0.822 | 0.701 | 0.814 | – | 0.942 | 1 | 1.07 | 0.792 | 0.595 | 0.543 | 0.467 | 0.441 | 0.616
BEN | 0.795 | 0.808 | 0.839 | 0.549 | 0.416 | 0.535 | 0.547 | – | 0.483 | 0.38 | 0.952 | 1.05 | 0.947 | 0.887 | 0.613 | 0.328 | 0.329 | 0.282 | 0.233 | 0.302
HCC-827 | 1.16 | 1.1 | 1.05 | 0.978 | 1.02 | 1.16 | 1.03 | 0.902 | 1.11 | 1.15 | 0.67 | 0.714 | 0.684 | 0.739 | 0.701 | 0.346 | 0.345 | 0.127 | 0.261 | 0.246
HOP-62 | 0.646 | 0.698 | 0.863 | 0.719 | 0.681 | 0.734 | 0.723 | 0.858 | 0.559 | 0.232 | 0.136 | 0.55 | 0.384 | 0.287 | 0.231 | 0.796 | 0.668 | 0.568 | 0.473 | 0.587
NCI-H1355 | 1.28 | 1.26 | 1.13 | 1.21 | 1.11 | 0.458 | 0.41 | 0.485 | 0.449 | 0.33 | 0.744 | 0.79 | 0.714 | 0.657 | 0.589 | 0.786 | 0.682 | 0.497 | 0.349 | 0.64
A549 | – | – | – | – | – | 0.517 | 0.516 | 0.591 | – | 0.483 | 0.192 | 0.371 | 0.306 | 0.234 | 0.227 | – | – | – | – | –
A-427 | 1.04 | 1.05 | 0.948 | 1.18 | 0.893 | 0.683 | 0.808 | 0.813 | 0.737 | 0.527 | 0.751 | 0.781 | 0.864 | 0.785 | 0.57 | 0.797 | 0.527 | 0.46 | 0.159 | 0.513
NCI-H358 | – | – | – | – | – | 0.353 | 0.366 | 0.359 | 0.362 | 0.304 | 0.508 | 0.565 | 0.625 | 0.691 | 0.445 | 0.151 | 0.183 | 0.139 | 0.0975 | 0.16
NCI-H23 | 0.977 | 0.836 | 1.09 | 1.21 | 0.853 | 0.486 | 0.508 | 0.524 | 0.523 | 0.426 | 0.313 | 0.308 | 0.302 | 0.282 | 0.254 | 0.896 | 0.85 | 0.79 | 0.496 | –
LXF-289 | 0.977 | 0.999 | 0.97 | 1.04 | 0.978 | 0.682 | – | 0.82 | 0.874 | 0.781 | 0.972 | 1.08 | 1.09 | 0.94 | 0.915 | 0.282 | 0.249 | 0.188 | 0.102 | 0.215
